Experimental data published in US20160256449A1, “H3 RECEPTOR ANTAGONIST FOR USE IN THE TREATMENT OF ALZHEIMER'S DISEASE” (SANOFI, priority 2013, published 2016).

How the values were obtained:
scopolamine treated mice = assay: object recognition task in scopolamine-treated mice; format: in vivo
Source text: FIG. 2 illustrates the results of the effect of a co-treatment with 2-(cyclohexylmethyl)-N-{2-[(2S)-1-methylpyrrolidin-2-yl]ethyl}-1,2,3,4-tetrahydroisoquinoline-7-sulfonamide and donepezil on recognition memory deficit in scopolamine-treated mice using the object recognition task.
The results of this study are depicted in FIG. 2.

[1] = system: patients with mild to moderate Alzheimer's disease; assay: clinical study, CDR-S computerized assessment; format: in vivo, human
Experimental: “CDR-S” as used herein, refers to the Cognitive Drug Research computerized assessment system which tests various aspects of human cognitive function, memory, and attention.
(§1) A randomized, double-blind, parallel-group, placebo-controlled clinical trial was performed to study the effect on cognitive performance, safety, and tolerability of 2-(cyclohexylmethyl)-N-{2-[(2S)-1-methylpyrrolidin-2-yl]ethyl}-1,2,3,4-tetrahydroisoquinoline-7-sulfonamide difumarate monohydrate as adjunct treatment to donepezil.
(§2) More specifically, patients with mild to moderate Alzheimer's disease on stable donepezil therapy were randomized to receive doses of 0.5 mg, 2 mg, or 5 mg/day of 2-(cyclohexylmethyl)-N-{2-[(2S)-1-methylpyrrolidin-2-yl]ethyl}-1,2,3,4-tetrahydroisoquinoline-7-sulfonamide difumarate monohydrate or placebo for 24 weeks, with a 10 week follow-up period.
(§3) Patients were randomized to receive 0.5 mg, 2 mg, or 5 mg of 2-(cyclohexylmethyl)-N-{2-[(2S)-1-methylpyrrolidin-2-yl]ethyl}-1,2,3,4-tetrahydroisoquinoline-7-sulfonamide difumarate monohydrate (measured in base form), or matching placebo once a day, with donepezil (5 mg or 10 mg in the form the patient took prior to enrollment), for 24 weeks, with or without food.
Change from baseline to Week 24 in the five factors from the Cognitive Drug Research computerized assessment system (CDR-S): power of attention, continuity of attention, quality of working memory, cognitive reaction time, and speed of memory;
Change from baseline to Week 8 and 24 in the Cognitive Drug Research computerized assessment system (CDR-S) episodic memory;

[2] = system: patients with mild to moderate Alzheimer's disease; assay: clinical study, AES-I apathy score; format: in vivo, human; details: 5 mg/day with donepezil
Experimental: “AES-I” as used herein, refers to the Apathy Evaluation Scale for Informant which assess global measure of apathy. Scores range from 18 (best possible) to 72 (worst possible).
as §1, §2, §3
Change from baseline to Week 12 and 24 in the Apathy Evaluation Scale for Informant (AES-I) score; and […]

[3] = system: patients with mild to moderate Alzheimer's disease; assay: clinical study, responder analysis on combined criterion (ADAS-Cog, ADCS-ADL, CGIC); format: in vivo, human; details: week 24
Source text: FIG. 7 illustrates the rate of “responders” at week 24 for the four dose group according to a combined criterion on the ADAS-Cog (2 points improvement vs baseline), ADCS-ADL (no worsening) and CGIC (no worsening) during the clinical study described in Example 2, in the mITT population.
“CGIC” as used herein, refers to the Clinical Global impression of Change assessed (at week 12 and week 24 during the clinical study described in Example 2) by the investigator according to 3 modalities: “Improvement” (includes marked, moderate and minimal improvement), “No change” and “Worsening” (includes minimal, moderate and marked worsening).
FIG. 7 illustrates the responder analysis at week 24 based on a combined criterion defined as followed: […]
change from baseline to Week 24 lower than or equal to −2 points in the ADAS-Cog total score, and
change from baseline to Week 24 greater than or equal to 0 point in the ADCS-ADL global score, and
no worsening according to the CGIC assessment at Week 24.

[4] = system: patients with mild to moderate Alzheimer's disease; assay: clinical study, treatment emergent adverse events (TEAE); format: in vivo, human; details: for Patients with an TEAE / Patients with any treatment emergent serious adverse event / TEAE: Anxiety / TEAE: Cardiac disorders / TEAE: Depressive disorders / TEAE: Dermatitis / TEAE: Diarrhea / TEAE: Dyspepsia / TEAE: Gastrointestinal disorders / TEAE: Hiatus hernia / TEAE: Infections and infestations / TEAE: Muscle spasm / TEAE: Musculoskeletal and connective tissue disorders / TEAE: Other (Falls) / TEAE: Psychiatric disorders / TEAE: Rashes / TEAE: Skin and subcutaneous tissue disorders / TEAE: Sleep disorders and Disturbance / TEAE: Vascular disorders: with donepezil
Experimental: as §1, §2, §3

For `CN1CCC[C@H]1CCNS(=O)(=O)c1ccc2c(c1)CN(CC1CCCCC1)CC2` [API, 2-(cyclohexylmethyl)-N-{2-[(2S)-1-methylpyrrolidin-2-yl]ethyl}-1,2,3,4-tetrahydroisoquinoline-7-sulfonamide difumarate monohydrate], the “activity of the amount given alone, episodic memory deficits” value (scopolamine treated mice; 0.3 mg/kg alone) was “inactive”, the “episodic memory deficits, co-treatment” value (scopolamine treated mice; 0.3 mg/kg with donepezil hydrochloride 1 mg/kg) was “reversed episodic memory deficits” and the “episodic memory difference vs placebo” value ([1]; 5 mg/day with donepezil, at 24 weeks) was “no longer significant”. For the same compound, the “power of attention vs placebo, tendency” value ([1]; 0.5 and 5 mg group at week 24) was “Tendencies for improvement versus placebo”, the “power of attention change from baseline vs placebo” value ([1]; all dose groups, week 8 or week 24, mITT) was “no significant difference” and the “CDR-S measure of working memory” value ([1]; week 24, with donepezil) was “not significantly modified”. For the same compound, the “CDR-S other measures of attention/speed of response” value ([1]; week 24, with donepezil) was “not significantly modified”, the “AES-I change from baseline vs placebo” value ([2]; after 12 weeks, mITT) was “significant difference” and the “AES-I difference vs placebo” value ([2]; at 24 weeks and follow-up) was “no longer significant”. For the same compound, the “rate of responder on a combined criterion (ADAS-Cog, ADCS-ADL, CGIC)” value ([3]; 5 mg group with donepezil) was 16.7%, the “rate of responders over placebo” value ([3]; 5 mg/day with donepezil) was “higher rate” and the “Patients with an TEAE” value ([4]; 0.5 mg (N = 72)) was 53 (73.6%). For the same compound, the “Patients with any treatment emergent serious adverse event” value ([4]; 0.5 mg (N = 72)) was 10 (13.9%), the “TEAE: Anxiety” value ([4]; 0.5 mg (N = 72)) was 3 (4.2%) and the “TEAE: Cardiac disorders” value ([4]; 0.5 mg (N = 72)) was 5 (6.9%). The “TEAE: Depressive disorders” value ([4]; 0.5 mg (N = 72)) was 1 (1.4%), the “TEAE: Dermatitis” value ([4]; 0.5 mg (N = 72)) was 1 (1.4%) and the “TEAE: Diarrhea” value ([4]; 0.5 mg (N = 72)) was 7 (9.7%). The “TEAE: Dyspepsia” value ([4]; 0.5 mg (N = 72)) was 1 (1.4%), the “TEAE: Gastrointestinal disorders” value ([4]; 0.5 mg (N = 72)) was 11 (15.3%) and the “TEAE: Hiatus hernia” value ([4]; 0.5 mg (N = 72)) was 0%. The “TEAE: Infections and infestations” value ([4]; 0.5 mg (N = 72)) was 20 (27.8%), the “TEAE: Muscle spasm” value ([4]; 0.5 mg (N = 72)) was 1 (1.4%) and the “TEAE: Musculoskeletal and connective tissue disorders” value ([4]; 0.5 mg (N = 72)) was 5 (6.9%). The “TEAE: Other (Falls)” value ([4]; 0.5 mg (N = 72)) was 9 (12.5%), the “TEAE: Psychiatric disorders” value ([4]; 0.5 mg (N = 72)) was 21 (29.2%) and the “TEAE: Rashes” value ([4]; 0.5 mg (N = 72)) was 1 (1.4%). The “TEAE: Skin and subcutaneous tissue disorders” value ([4]; 0.5 mg (N = 72)) was 7 (9.7%), the “TEAE: Sleep disorders and Disturbance” value ([4]; 0.5 mg (N = 72)) was 12 (16.7%) and the “TEAE: Vascular disorders” value ([4]; 0.5 mg (N = 72)) was 2 (2.8%). The “Patients with an TEAE” value ([4]; 2 mg (N = 72)) was 54 (76.1%), the “Patients with any treatment emergent serious adverse event” value ([4]; 2 mg (N = 72)) was 10 (14.1%) and the “TEAE: Anxiety” value ([4]; 2 mg (N = 72)) was 4 (5.6%). The “TEAE: Cardiac disorders” value ([4]; 2 mg (N = 72)) was 3 (4.2%), the “TEAE: Depressive disorders” value ([4]; 2 mg (N = 72)) was 2 (2.8%) and the “TEAE: Dermatitis” value ([4]; 2 mg (N = 72)) was 3 (4.2%). The “TEAE: Diarrhea” value ([4]; 2 mg (N = 72)) was 7 (9.9%), the “TEAE: Dyspepsia” value ([4]; 2 mg (N = 72)) was 1 (1.4%) and the “TEAE: Gastrointestinal disorders” value ([4]; 2 mg (N = 72)) was 18 (25.4%). For the same compound, the “TEAE: Hiatus hernia” value ([4]; 2 mg (N = 72)) was 0%, the “TEAE: Infections and infestations” value ([4]; 2 mg (N = 72)) was 11 (15.5%) and the “TEAE: Muscle spasm” value ([4]; 2 mg (N = 72)) was 2 (2.8%). The “TEAE: Musculoskeletal and connective tissue disorders” value ([4]; 2 mg (N = 72)) was 12 (16.9%), the “TEAE: Other (Falls)” value ([4]; 2 mg (N = 72)) was 7 (9.9%) and the “TEAE: Psychiatric disorders” value ([4]; 2 mg (N = 72)) was 18 (25.4%). The “TEAE: Rashes” value ([4]; 2 mg (N = 72)) was 4 (5.6%), the “TEAE: Skin and subcutaneous tissue disorders” value ([4]; 2 mg (N = 72)) was 15 (21.1%) and the “TEAE: Sleep disorders and Disturbance” value ([4]; 2 mg (N = 72)) was 11 (15.5%). For the same compound, the “TEAE: Vascular disorders” value ([4]; 2 mg (N = 72)) was 3 (4.3%), the “Patients with an TEAE” value ([4]; 5 mg (N = 69)) was 59 (85.5%) and the “Patients with any treatment emergent serious adverse event” value ([4]; 5 mg (N = 69)) was 8 (11.6%). For the same compound, the “TEAE: Anxiety” value ([4]; 5 mg (N = 69)) was 4 (5.8%), the “TEAE: Cardiac disorders” value ([4]; 5 mg (N = 69)) was 5 (7.2%) and the “TEAE: Depressive disorders” value ([4]; 5 mg (N = 69)) was 5 (7.2%). For the same compound, the “TEAE: Dermatitis” value ([4]; 5 mg (N = 69)) was 3 (4.3%), the “TEAE: Diarrhea” value ([4]; 5 mg (N = 69)) was 4 (5.8%) and the “TEAE: Dyspepsia” value ([4]; 5 mg (N = 69)) was 3 (4.3%). The “TEAE: Gastrointestinal disorders” value ([4]; 5 mg (N = 69)) was 17 (24.6%), the “TEAE: Hiatus hernia” value ([4]; 5 mg (N = 69)) was 3 (4.3%) and the “TEAE: Infections and infestations” value ([4]; 5 mg (N = 69)) was 16 (23.2%). The “TEAE: Muscle spasm” value ([4]; 5 mg (N = 69)) was 7 (10.6%), the “TEAE: Musculoskeletal and connective tissue disorders” value ([4]; 5 mg (N = 69)) was 16 (23.2%) and the “TEAE: Other (Falls)” value ([4]; 5 mg (N = 69)) was 7 (10.1%). For the same compound, the “TEAE: Psychiatric disorders” value ([4]; 5 mg (N = 69)) was 27 (39.1%), the “TEAE: Rashes” value ([4]; 5 mg (N = 69)) was 1 (1.4%) and the “TEAE: Skin and subcutaneous tissue disorders” value ([4]; 5 mg (N = 69)) was 5 (7.2%). For the same compound, the “TEAE: Sleep disorders and Disturbance” value ([4]; 5 mg (N = 69)) was 21 (30.4%), the “TEAE: Vascular disorders” value ([4]; 5 mg (N = 69)) was 3 (4.3%) and the “sleep disorders and disturbances, incidence among groups” value ([4]; 5 mg group) was “highest incidence”. For the same compound, the safety and tolerability ([4]; 0.5, 2, 5 mg/day with donepezil, 24 weeks) was “safe and well tolerated” and the “vascular disorders, incidence over placebo” value ([4]; all treated groups) was “low incidence”.
